Reference: US20240108702A1, “Use Of Naturally Occurring Cyclic Peptides For Treatment Of SARS-COV-2 Infection” (The University of Southern California, priority 2021, published 2024)
pIC50: −log10 of the molar value. Read-outs that look alike come from different tables or passages of the source. Where a SMILES comes first, the peptide text is derived from it. Bridges are numbered along the chain shown (N, C = ends).

Legend:
[1] = Single-dose i.v. bolus PK study in mice; assay type: in vivo, CD-1 mice
Description: Mouse studies: All procedures and protocols involving the use of animals were reviewed and approved by the University of Southern California (USC) IACUC (protocol #20538). Briefly, male (31.7-37.7 g) and female (25.2-35.6 g) CD-1 mice (Charles River Laboratories) were administered a single 5 mg/kg i.v. bolus injection of Peptide 1 (SEQ ID NO. 1) into the lateral tail vein. A total of 24 mice were separated into six groups (n=2/sex/group), with each group assigned to a single, pre-determined time point. Blood samples were collected at 0.25, 1, 2, 4, 8, and 24 h post-dose via terminal cardiac puncture. The collected samples were centrifuged to separate the plasma and stored at −80° C. until analysis.
Bioanalytical analysis: Clarified plasma samples from mice were directly diluted into 5% formic acid/5% acetonitrile. Quantitative analysis of Peptide 1 (SEQ ID NO. 1) was performed by LC-MS/MS with reverse-phase liquid chromatography (XBridge™ BEH phenyl 3.5 μm 3×100 mm column, Waters #186003328) on an Acquity™ H-Class UPLC (Waters) coupled to a Xevo™ TQ-S tandem electrospray mass spectrometry running MassLynx™ V4.1 (Waters). Quantitative mass spectroscopy was performed by multiple-reaction monitoring transition 417.32>517.21, with the area under the curve determined by TargetLynx™ (Waters). A synthetic theta defensin-like peptide was used as an internal standard (IS). The lower limit of quantification (LLOQ) of the assay was 1 ng/mL. Intra- and inter-assay precision (percent coefficient of variation [CV]) was ≤3%, and intra and interassay accuracy (% relative error) was ≤5%. Plasma Peptide 1 (SEQ ID NO. 1) concentration analyses for rats and cynomolgus monkey studies were performed at MicroConstants (San Diego, CA) by HPLC using a Mac-Mod™ Analytical ACE C4 column. The mobile phase was nebulized using heated nitrogen in Z-Spray source/interface set to electrospray positive ionization mode, and the compound was detected using MS/MS (LLOQ=10.0 ng/mL). Details of the method are summarized in the MicroConstants method No. MN20038. Clarified plasma samples from a serially sampled vervet were quantified by ultra-performance liquid chromatography Waters Acquity H-Class UPLC. […] Peptide 1 (SEQ ID NO. 1) peak and mass confirmation was performed on post PDA eluent using a Micromass Quattro Ultima™ mass spectrometer with MassLynx™ 4.1 (Waters). The lower limit of quantitation (LLOQ) ranged from 10-30 ng/mL (determined by sample background) to an upper limit of 50 ug/mL. RTD-2 (10 ug/mL) was used as an internal standard. Intra- and interassay precision (% coefficient of variation [CV]) was ≤3%, and intra and interassay accuracy (% relative error) was ≤5%.
Pharmacokinetic analysis: Non-compartmental analysis (NCA) was performed using Phoenix WinNonlin™ (version 8.3.1, Certara USA, Inc.; Princeton NJ) to determine the PK parameters in mice, rats, cynomolgus monkeys, and the vervet. Nominal sampling times were used in the analysis, and data below the lower limit of quantification of the assay were excluded from the analysis. The maximum plasma concentration (Cmax) was determined from visual inspection of the data. In addition, the following parameters were calculated: terminal elimination rate constant (λz), area under the curve extrapolated to infinity (AUC0-∞), area under the curve to dosing interval (AUCτ), mean residence time (MRT), clearance (CL), and volume of distribution at steady state (Vss). AUC was calculated using the linear up, log down method, and the λz was calculated using up to the last four data points of the log-linear terminal phase of the concentration-time profile. Due to sparsely sampled data in mice and rats, the sparse sampling calculation methodology in Phoenix WinNonlin™ was used, which generated a single estimate without standard error for all parameters, except for Cmax. For rats and cynomolgus monkeys, all parameters were calculated using sampling times relative to the beginning of the i.v. infusion.

[2] = cynomolgus
in vivo = conditions: both, cynomolgus monkey, iv
[3] = Interspecies allometric scaling to predict human PK and human equivalent dose
Description: Interspecies allometric scaling: Single-dose PK data from mice, rats, cynomolgus monkeys, and a vervet was used to predict human PK parameters using simple allometry. The relationship between CL or Vss obtained from the NCA, and the body weight was described using the following equation: Y=a·BW^b, where Y is the PK parameter (e.g., CL or Vss), BW is the bodyweight of the species, a is an allometric coefficient, and b is an allometric exponent. Linear regression was performed on log-transformed data. The predicted human equivalent dose was calculated based on the allometrically scaled clearance using the following equation: Dose=CL*AUC0-∞. The corresponding average AUCτ and AUC0-∞ at NOAEL and LOAEL, respectively, were used to convert the doses at NOAEL and LOAEL in preclinical animals to HED.

TMPRSS2 = TMPRSS2 (Homo sapiens, UniProt O15393); assay: Cellular TMPRSS2 inhibition assay in Calu3 cells; assay type: cell-based; design: endogenous in cells; host or cells: Calu3 (Calu-3) cells
Chain of TMPRSS2 (O15393 whole entry): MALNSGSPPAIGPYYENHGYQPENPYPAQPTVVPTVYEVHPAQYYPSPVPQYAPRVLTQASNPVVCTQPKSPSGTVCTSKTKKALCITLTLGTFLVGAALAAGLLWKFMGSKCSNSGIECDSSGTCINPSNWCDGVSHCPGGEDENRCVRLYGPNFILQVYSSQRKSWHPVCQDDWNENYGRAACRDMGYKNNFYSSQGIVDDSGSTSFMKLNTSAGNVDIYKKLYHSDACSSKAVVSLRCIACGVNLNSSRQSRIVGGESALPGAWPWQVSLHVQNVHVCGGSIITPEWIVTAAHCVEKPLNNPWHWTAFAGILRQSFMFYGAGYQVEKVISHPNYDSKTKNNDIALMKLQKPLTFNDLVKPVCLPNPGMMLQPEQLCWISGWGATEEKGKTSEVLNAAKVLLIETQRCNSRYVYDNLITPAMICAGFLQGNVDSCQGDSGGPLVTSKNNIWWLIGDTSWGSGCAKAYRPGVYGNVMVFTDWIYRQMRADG
Description: TMPRSS2 inhibition assays. Peptides (0-50 μg/ml) were tested for their inhibitory activities against TMPRSS2 in cellular assays using Vero E6 cells, Caco-2 cells, or Calu-3 cells using standard conditions. TMPRSS2 activity was assayed in real time for 120 min by monitoring the cleavage of the TMPRSS2 substrate, Boc-Leu-Gly-Arg-AMC. Following the 2 h enzyme assay, cells were evaluated for viability using the CellTiter-Glo cellular toxicity assay.

[4] = both sexes, CD-1, mouse, plasma, iv, single 5 mg/kg i.v. bolus

Q: Which AUC [1, 4] does the source give for `CC[C@H](C)[C@@H]1NC(=O)[C@@H]2CSSC[C@H](NC(=O)[C@H](CCCNC(=N)N)NC(=O)[C@@H]3CSSC[C@H](NC1=O)C(=O)N[C@@H]([C@@H](C)O)C(=O)N[C@@H](CCCNC(=N)N)C(=O)NCC(=O)N[C@@H](Cc1ccccc1)C(=O)N3)C(=O)N[C@@H](CC(C)C)C(=O)N[C@H]1CSSC[C@H](NC(=O)[C@H](C(C)C)NC(=O)CNC(=O)[C@H](CCCNC(=N)N)NC(=O)[C@H](CCCNC(=N)N)NC1=O)C(=O)N[C@@H](CCCNC(=N)N)C(=O)N2` [Peptide 1] (cyclo(GFCRCLCRRGVCRCICTR); disulfide 3-16, 5-14, 7-12) here?
A: The AUC was 12300 ng·h/mL.

Q: And the AUC(0-inf) [1, 4]?
A: The AUC(0-inf) was 12500 ng·h/mL.

Q: And the MRT [1, 4]?
A: The MRT was 2.62 h.

Q: And the clearance [1, 4]?
A: Its clearance is 6.67 mL/min/kg.

Q: And the Cmax ([1]; both sexes, CD-1, mouse, plasma, iv, single 5 mg/kg i.v. bolus, estimate (SE))?
A: Its Cmax is 8920 ng/mL.

Q: What about the Vd ([1]; both sexes, CD-1, mouse, plasma, iv, single 5 mg/kg i.v. bolus, read-out: Vss) of the same compound?
A: The Vd was 1.05 L/kg.

Q: What about the λz ([1]; single 5 mg/kg i.v. bolus) of the same compound?
A: The λz was 0.114 h⁻¹.

Q: What about the elimination phase half-life ([1]; single i.v. bolus) of the same compound?
A: The elimination phase half-life was 6.05 h.

Q: What about the λz ([2]; 0.3 mg/kg i.v., Day 1, mean) of the same compound?
A: The λz was 0.523 h⁻¹.

Q: And the λz ([2]; 1 mg/kg i.v., Day 1, mean)?
A: Its λz is 0.251 h⁻¹.

Q: What about the λz ([2]; 3 mg/kg i.v., Day 1, mean) of the same compound?
A: The λz was 0.078 h⁻¹.

Q: And the “accumulation, mean AUCτ Day 10 vs mean AUC0-∞ Day 1” value ([2]; 5 mg/kg)?
A: The value was “approximately 1.4 fold”.

Q: What about the λz ([2]; 5 mg/kg i.v., Day 1, mean) of the same compound?
A: The λz was 0.323 h⁻¹.

Q: What about the λz ([2]; 5 mg/kg/day i.v., Day 10, mean) of the same compound?
A: Its λz is 0.157 h⁻¹.

Q: And the “accumulation, mean AUCτ Day 10 vs mean AUC0-∞ Day 1” value ([2]; 10 mg/kg)?
A: Its value is roughly 1.5 fold.

Q: What about the λz ([2]; 10 mg/kg i.v., Day 1, mean) of the same compound?
A: The λz was 0.192 h⁻¹.

Q: What about the λz ([2]; 10 mg/kg/day i.v., Day 10, mean) of the same compound?
A: Its λz is 0.120 h⁻¹.

Q: And the λz ([2]; 15 mg/kg i.v., Day 1, mean)?
A: Its λz is 0.149 h⁻¹.

Q: What about the λz ([2]; 15 mg/kg/day i.v., Day 4, mean) of the same compound?
A: Its λz is 0.072 h⁻¹.

Q: What about the λz ([2]; 15 mg/kg/day i.v., Day 7, mean) of the same compound?
A: Its λz is 0.071 h⁻¹.

Q: What about the λz ([2]; 15 mg/kg/day i.v., Day 10, mean) of the same compound?
A: The λz was 0.078 h⁻¹.

Q: And the “time plasma concentrations detectable post end of infusion” value ([2]; single dose of 0.3 or 1 mg/kg)?
A: The value was “up to 12 h”.

Q: What about the NOAEL at 10 days (in vivo) of the same compound?
A: The NOAEL at 10 days was 15 mg/kg/day.

Q: What about the “HED equivalent to NOAEL in cynomolgus monkeys” value ([3]; 70 kg individual) of the same compound?
A: The value was 15.9 mg/kg.

Q: And the “HED equivalent to NOAEL in rats” value ([3]; 70 kg individual)?
A: The value was 3.1 mg/kg.

Q: And the “predicted human Vss” value ([3]; adult 70 kg, simple allometry)?
A: The value was 28.0 L.

Q: And the pIC50 (TMPRSS2)?
A: Its pIC50 is 5.42 to 5.51.
